Key:
[1] = test system: biomarkers for myocardial infarction risk; settings: clinical trial; cited from earlier work
[2] = target: T1, recombinant human FLAP protein (Homo sapiens, UniProt P20292); experiment: FLAP binding assay (SPA, displacement of [125I]L-691,831); settings: membranes of sf9 cells expressing recombinant human FLAP; [125I]L-691,831 probe; read-out: FLAP binding IC50
T1 construct: made in house; host or cells: Sf9 insect cells (100,000×g membrane pellet used)
T1 sequence (P20292 1-161): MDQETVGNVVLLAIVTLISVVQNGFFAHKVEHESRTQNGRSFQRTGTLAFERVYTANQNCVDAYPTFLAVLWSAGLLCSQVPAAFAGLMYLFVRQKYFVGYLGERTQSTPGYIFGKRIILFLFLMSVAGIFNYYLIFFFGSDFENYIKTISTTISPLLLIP
Summary of the method: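 Membranes from sf9 cells expressing human FLAP in pH 7.5 Tris buffer (MgCl2, EDTA, PMSF). Non-specific binding defined with 10 μM cold L-691,831.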

[3] = test system: synthesis of LTB4 in human whole blood; experiment: Human whole blood assay (inhibition of LTB4 synthesis, calcimycin stimulated); format: cell-based; settings: heparinized human whole blood, calcimycin 20 μM, plasma LTB4
Summary of the method: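 LTB4 in plasma was quantified by HTRF immunoassay. Before that, compound-treated heparinized whole blood (15 min, 37 °C) received 20 μM final calcimycin for a further 30 min at 37 °C, followed by centrifugation at 1500×g.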

human glomerulonephritis = settings: clinical trial; cited from earlier work
[4] = test system: apoE/LDL-R double knockout mice; settings: oral dosing, high-fat diet from 2 months of age to 6 months; cited from earlier work
ApoE−/−xCD4dnTβRII mice = settings: via infusion, treated for four weeks; cited from earlier work

Row | IC50 [2] | IC50 [3] | SMILES | also measured
1 |  |  | O=C(O)[C@@H](c1ccc(OCc2ccc3ccccc3n2)cc1)C1CCCC1 [DG-031] | effect on biomarkers for myocardial infarction risk [1]: dose-dependent suppression of several biomarkers
2 | 0.007 µM | 0.15 µM | CC(c1ccc(-c2cnc(N)nc2)cc1)(c1noc(N2CCC[C@@H](O)C2)n1)C1CC1 (stereo partly drawn) [Example 287, (R)-1-(3-{1-[4-(2-Amino-pyrimidin-5-yl)-phenyl]-1-cyclopropyl-ethyl}-[1,2,4]oxadiazol-5-yl)-piperidin-3-ol] | 
3 | 0.0025 µM | 0.2 µM | CC(c1ccc(-c2cnc(N)nc2)cc1)(c1noc(N2CCC[C@H](O)C2)n1)C1CC1 (stereo partly drawn) [Example 288, (S)-1-(3-{1-[4-(2-Amino-pyrimidin-5-yl)-phenyl]-1-cyclopropyl-ethyl}-[1,2,4]oxadiazol-5-yl)-piperidin-3-ol] | 
4 | 0.022 µM | 1 µM | CN(C)C(=O)Cn1cc(-c2nc(C(C)(c3ccc(-c4cnc(N)c(C(F)(F)F)n4)cc3)C3CC3)no2)cn1 (centres unmarked) [Example 289, 2-[4-(3-{1-[4-(5-Amino-6-trifluoromethyl-pyrazin-2-yl)-phenyl]-1-cyclopropyl-ethyl}-[1,2,4]oxadiazol-5-yl)-pyrazol-1-yl]-N,N-dimethyl-acetamide] | 
5 | 0.022 µM | 2 µM | Cn1cc(-c2nc(C(C)(c3ccc(-c4cncc(OCc5ccccc5)c4)cc3)C3CC3)no2)cn1 (centres unmarked) [Example 290, 3-Benzyloxy-5-(4-{1-cyclopropyl-1-[5-(1-methyl-1H-pyrazol-4-yl)-[1,2,4]oxadiazol-3-yl]-ethyl}-phenyl)-pyridine] | 
6 | 0.0045 µM | 0.089 µM | CN(C)C(=O)Cn1cc(-c2nc([C@@](C)(c3ccc(-c4cnc(N)c(F)c4)cc3)C3CC3)no2)cn1 [Example 291, 2-[4-(3-{(R)-1-[4-(6-Amino-5-fluoro-pyridin-3-yl)-phenyl]-1-cyclopropyl-ethyl}-[1,2,4]oxadiazol-5-yl)-pyrazol-1-yl]-N,N-dimethyl-acetamide] | 
7 | 0.0085 µM | 0.15 µM | Cc1nc(N)ccc1-c1ccc([C@](C)(c2noc(-c3cnn(CC(=O)N(C)C)c3)n2)C2CC2)cc1 [Example 292, 2-[4-(3-{(R)-1-[4-(6-Amino-2-methyl-pyridin-3-yl)-phenyl]-1-cyclopropyl-ethyl}-[1,2,4]oxadiazol-5-yl)-pyrazol-1-yl]-N,N-dimethyl-acetamide] | 
8 | 0.0035 µM | 0.11 µM | CN(C)C(=O)Cn1cc(-c2nc([C@@](C)(c3ccc(-c4cnc(N)nc4F)cc3)C3CC3)no2)cn1 [Example 293, 2-[4-(3-{(R)-1-[4-(2-Amino-4-fluoro-pyrimidin-5-yl)-phenyl]-1-cyclopropyl-ethyl}-[1,2,4]oxadiazol-5-yl)-pyrazol-1-yl]-N,N-dimethyl-acetamide] | 
9 | 0.007 µM | 0.2 µM | CN(C)C(=O)Cn1cc(-c2nc([C@@](C)(c3ccc(-c4cnc(N)c(C#N)n4)cc3)C3CC3)no2)cn1 [Example 294, 2-[4-(3-{(R)-1-[4-(5-Amino-6-cyano-pyrazin-2-yl)-phenyl]-1-cyclopropyl-ethyl}-[1,2,4]oxadiazol-5-yl)-pyrazol-1-yl]-N,N-dimethyl-acetamide] | 
10 | 0.0075 µM | 0.15 µM | CN(C)C(=O)Cn1cc(-c2nc(C(C)(c3ccc(-c4ncc(N)nc4C#N)cc3)C3CC3)no2)cn1 (centres unmarked) [Example 295, 2-[4-(3-{1-[4-(5-Amino-3-cyano-pyrazin-2-yl)-phenyl]-1-cyclopropyl-ethyl}-[1,2,4]oxadiazol-5-yl)-pyrazol-1-yl]-N,N-dimethyl-acetamide] | 
11 | 0.012 µM | 0.23 µM | CN(C)C(=O)Cn1cc(-c2nc(C(C)(c3ccc(-c4ccc(N)nc4C#N)cc3)C3CC3)no2)cn1 (centres unmarked) [Example 296] | 
12 | 0.0085 µM | 0.079 µM | CN(c1nc(C(C)(c2ccc(-c3cnc(N)nc3)cc2)C2CC2)no1)C1CCC(O)CC1 (centres unmarked) [Example 297, 4-[(3-{1-[4-(2-Amino-pyrimidin-5-yl)-phenyl]-1-cyclopropyl-ethyl}-[1,2,4]oxadiazol-5-yl)-methyl-amino]-cyclohexanol] | 
13 | 0.01 µM | 0.13 µM | Cc1nc(N)nc(F)c1-c1ccc([C@](C)(c2noc(-c3cnn(CC(=O)N(C)C)c3)n2)C2CC2)cc1 [Example 298, 2-[4-(3-{(R)-1-[4-(2-Amino-4-fluoro-6-methyl-pyrimidin-5-yl)-phenyl]-1-cyclopropyl-ethyl}-[1,2,4]oxadiazol-5-yl)-pyrazol-1-yl]-N,N-dimethyl-acetamide] | 
14 |  |  | CC(C)(C)Sc1c(CC(C)(C)C(=O)O)n(Cc2ccc(Cl)cc2)c2ccc(OCc3ccc4ccccc4n3)cc12 [MK-591] | effect on proteinuria in human glomerulonephritis (human glomerulonephritis): reduce proteinuria
15 |  |  | CC(C)c1ccc2c(c1)c(SC(C)(C)C)c(CC(C)(C)C(=O)O)n2Cc1ccc(Cl)cc1 [MK-886] | decrease in plaque coverage in the aorta [4]: 56%; decrease in plaque coverage in the aortic root [4]: 43%; decrease in plaque area in the aortic root (ApoE−/−xCD4dnTβRII mice): ~40%

— patent US8658661B2, “Oxadiazole inhibitors of leukotriene production” (Boehringer Ingelheim International GmbH, priority 2010, dated 2014)
